Experimental data taken from patent US12195559B2, “CDCA1-derived peptide and vaccine containing same” (ONCOTHERAPY SCIENCE, INC., priority 2018, dated 2025).
Entries after “also recorded” stand apart in the source; their conditions may differ.

Tests used:
[1] = test system: peptide-pulsed C1R-A01; test: In vitro CTL induction, IFN-gamma ELISPOT assay; format: cell-based, human; settings: CD8-positive T cells from HLA-A*01:01-positive donors stimulated with DCs pulsed with 20 micro-g/ml peptide, target C1R-A01 pulsed vs not pulsed
Description: C1R cells (C1R-A01) that constitutively express HLA-A*01:01 was used as cells for stimulating CTLs. A cDNA encoding the HLA-A*01:01 gene was amplified by PCR and introduced into an expression vector. C1R cells incorporated with HLA-A*01:01 gene expression vector were cultured for two weeks under drug selection with a medium containing G418 (Invitrogen). After diluting G418-resistant C1R cell suspension, the cells were seeded into a 96-well plate, and subjected to selective culture for another 30 days with a medium containing G418. The HLA-A*01:01 expression in C1R cells was verified by flow cytometric analysis.
Monocyte-derived dendritic cells (DCs) were used as the antigen-presenting cell to induce a cytotoxic T lymphocyte (CTL) specific to peptides presented on human leukocyte antigens (HLAs). DCs were prepared in vitro as already reported in the literature (Nakahara S et al., Cancer Res 2003, 63(14): 4112-8). Specifically, peripheral-blood mononuclear cells (PBMCs) collected from healthy volunteers (HLA-A*01:01-positive) with the Ficoll-Paque plus solution (Pharmacia) were seeded into plastic tissue culture dishes (Corning) to allow attachment of monocytes in PBMCs to the dishes. Then, the cells were cultured in the presence of 1000 IU/ml granulocyte macrophage colony-stimulating factor (R&D System) and 1000 IU/ml interleukin (IL)-4 (R&D System) for seven days. As medium, an AIM-V medium (Invitrogen) containing inactivated AB type serum (MP Biomedicals) was used (2% ABS/AIM-V medium). […] Peptide pulsing was performed in the AIM-V medium. These peptide-pulsed DCs were inactivated by X-ray irradiation (20 Gy), and mixed in a 1:20 ratio with autologous CD8-positive T cells obtained by using the CD8 Positive Isolation Kit (Invitrogen) (1.5×10^4 DCs and 3×10^5 CD8-positive T cells), and cultured in a 48-well plate (Corning). The volume of 2% ABS/AIM-V medium was 0.5 ml per 1 well, and IL-7 (R&D System) was added (final concentration: 10 ng/ml) to the well. Two days after the start of culture, IL-2 (Novartis) was added thereto (final concentration: 20 IU/ml). On 7th day of culture and 14th day of culture, CD8-positive T cells were further stimulated with peptide-pulsed DCs. The DCs were prepared before use by the same method as above. On 21st day or thereafter (after the third DC stimulation), IFN-gamma production of CD8-positive T cells against peptide-pulsed C1R-A01 was confirmed by enzyme-linked immunospot (ELISPOT) assay (Tanaka H et al., Br J Cancer 2001, 84(1): 94-9; Umano Y et al., Br J Cancer 2001, 84(8): 1052-7; Uchida N et al., Clin Cancer Res 2004, 10(24): 8577-86; Suda T et al., Cancer Sci 2006, 97(5): 411-9; Watanabe T et al., Cancer Sci 2005, 96(8): 498-506).
(§1) C1R-A01 pulsed with a peptide was prepared as target cells. The IFN-gamma ELISPOT assay and IFN-gamma ELISA were performed according to the procedures recommended by the assay kit manufacturer.

[2] = test system: peptide-pulsed C1R-A01; test: IFN-gamma ELISA of CTL clones established by limiting dilution; format: cell-based, human; settings: CTL clones against peptide-pulsed vs non-pulsed target cells
Description: CTLs were propagated using a method similar to that reported by Riddell et al. (Walter E A et al., N Engl J Med 1995, 333(16): 1038-44; Riddell S R et al., Nat Med 1996, 2(2): 216-23). In a flask for tissue culture (FALCON), the CTLs were cultured in 5% ABS/AIM-V medium (culture solution volume: 25 ml/flask) with two types of human B lymphoblastoid cell lines (5×10^6 cells each) treated with mitomycin C and anti-CD3 antibody (BD biosciences, final concentration: 40 ng/ml). On the next day after the culturing was started, IL-2 was added to the culture (IL-2 final concentration: 120 IU/ml). On days 5, 8, and 11, the medium was changed to 5% ABS/AIM-V medium containing 60 IU/ml IL-2 (IL-2 final concentration: 30 IU/ml) (Tanaka H et al., Br J Cancer 2001, 84(1): 94-9; Umano Y et al., Br J Cancer 2001, 84(8): 1052-7; Uchida N et al., Clin Cancer Res 2004, 10(24): 8577-86; Suda T et al., Cancer Sci 2006, 97(5): 411-9; Watanabe T et al., Cancer Sci 2005, 96(8): 498-506).
After CTLs were induced in vitro, the CTLs were seeded at 1 cell/well or 10 cells/well in a 96-well round-bottomed microplate (Corning). The CTLs were cultured in 5% ABS/AIM-V medium (culture solution volume: […]) with two types of human B lymphoblastoid cell lines (1×10^4 cells each) treated with mitomycin C, anti-CD3 antibody (final concentration: 30 ng/ml), and IL-2 (final concentration: 125 IU/ml). After 10 days, […] of 5% ABS/AIM-V medium containing 500 IU/ml IL-2 was added to the culture.
as §1

[3] = test system: COS7 cells expressing CDCA1 and HLA-A*01:01; test: IFN-gamma production of CTL clone against target cells expressing CDCA1 and HLA-A*01:01; format: cell-based, African green monkey
Description: as §1
The cDNA encoding the CDCA1 or HLA-A*01:01 gene were amplified by PCR. Each PCR amplified product was incorporated into an expression vector. Using Lipofectamine 2000 (Invitrogen), either or both of the CDCA1 gene expression vector and the HLA-A*01:01 gene expression vector were introduced into COS7 cells, an HLA-negative cell line, according to the procedure recommended by the manufacturer. On the next day of the gene introduction, the COS7 cells were separated using Versene (Invitrogen) and used as target cells.

## ARQEVVEKY (a peptide derived from CDCA1) [SEQ ID NO: 35, CDCA1-derived 9mer peptide, start position 268]
[1]; listed as CDCA1-A01-9-268
  Peptide-specific IFN-gamma production (CTL induction): Peptide-specific IFN-gamma production relative to the control well was observed; also recorded: able to induce CTLs that showed peptide-specific IFN-gamma production

## DSPEKLKNY (a peptide derived from CDCA1) [SEQ ID NO: 34, CDCA1-derived 9mer peptide, start position 246]
[1]; listed as CDCA1-A01-9-246
  Peptide-specific IFN-gamma production (CTL induction): Peptide-specific IFN-gamma production relative to the control well was observed; also recorded: able to induce CTLs that showed peptide-specific IFN-gamma production

## ETYMEFLWQY (a peptide derived from CDCA1) [SEQ ID NO: 8, CDCA1-derived 10mer peptide, start position 136]
[1]; listed as CDCA1-A01-10-136
  Peptide-specific IFN-gamma production (CTL induction): Peptide-specific IFN-gamma production relative to the control well was observed; also recorded: able to induce CTLs that showed peptide-specific IFN-gamma production
[2]; listed as CDCA1-A01-10-136
  Peptide-specific IFN-gamma production of CTL clones: showed peptide-specific IFN-gamma production
[3]; COS7 cells expressing both CDCA1 and HLA-A*01:01
  IFN-gamma production of CTL clone against target cells: showed IFN-gamma production
[3]; COS7 cells expressing either CDCA1 or HLA-A*01:01, listed as CDCA1-A01-10-136
  IFN-gamma production of CTL clone against negative control cells: no significant IFN-gamma production was observed; also recorded: did not show significant IFN-gamma production

## FREACRETY (a peptide derived from CDCA1) [SEQ ID NO: 33, CDCA1-derived 9mer peptide, start position 130]
[1]; listed as CDCA1-A01-9-130
  Peptide-specific IFN-gamma production (CTL induction): Peptide-specific IFN-gamma production relative to the control well was observed; also recorded: able to induce CTLs that showed peptide-specific IFN-gamma production

## IYMRALQIVY (a peptide derived from CDCA1) [SEQ ID NO: 13, CDCA1-derived 10mer peptide, start position 48]
[1]; listed as CDCA1-A01-10-48
  Peptide-specific IFN-gamma production (CTL induction): Peptide-specific IFN-gamma production relative to the control well was observed; also recorded: able to induce CTLs that showed peptide-specific IFN-gamma production
[2]; listed as CDCA1-A01-10-48
  Peptide-specific IFN-gamma production of CTL clones: showed peptide-specific IFN-gamma production

## MMPVNSEVMY (a peptide derived from CDCA1) [SEQ ID NO: 9, CDCA1-derived 10mer peptide, start position 66]
[1]; listed as CDCA1-A01-10-66
  Peptide-specific IFN-gamma production (CTL induction): No IFN-gamma production; also recorded: peptide-specific IFN-gamma production was not observed

## QLVQLYQK (QLEVQLYQK; a peptide derived from CDCA1) [SEQ ID NO: 25, CDCA1-derived 9mer peptide, start position 290]
[1]; listed as CDCA1-A01-9-290
  Peptide-specific IFN-gamma production (CTL induction): Peptide-specific IFN-gamma production relative to the control well was observed; also recorded: able to induce CTLs that showed peptide-specific IFN-gamma production

## SCQLEVQLY (a peptide derived from CDCA1) [SEQ ID NO: 37, CDCA1-derived 9mer peptide, start position 288]
[1]; listed as CDCA1-A01-9-288
  Peptide-specific IFN-gamma production (CTL induction): Peptide-specific IFN-gamma production relative to the control well was observed; also recorded: able to induce CTLs that showed peptide-specific IFN-gamma production

## VYGIRLEHFY (a peptide derived from CDCA1) [SEQ ID NO: 10, CDCA1-derived 10mer peptide, start position 56]
[1]; listed as CDCA1-A01-10-56
  Peptide-specific IFN-gamma production (CTL induction): Peptide-specific IFN-gamma production relative to the control well was observed; also recorded: able to induce CTLs that showed peptide-specific IFN-gamma production
[2]; listed as CDCA1-A01-10-56
  Peptide-specific IFN-gamma production of CTL clones: showed peptide-specific IFN-gamma production

## YMEFLWQY (a peptide derived from CDCA1) [SEQ ID NO: 1, CDCA1-derived 8mer peptide, start position 138]
[1]; listed as CDCA1-A01-8-138
  Peptide-specific IFN-gamma production (CTL induction): Peptide-specific IFN-gamma production relative to the control well was observed; also recorded: able to induce CTLs that showed peptide-specific IFN-gamma production
